# Results from patent US8895745B2, “Bicyclic heterocyclic compounds as FGFR inhibitors” (Astex Therapeutics Limited, priority 2006, dated 2014).
# Counter-ions that a name gives are not always drawn. Like-named read-outs stand apart in the source and are kept apart here.
# What was measured:
# FGFR3 = FGFR3 (Homo sapiens (Human), UniProt P22607); assay: FGFR3 in vitro kinase inhibitory activity assay (TRF, biotinylated Flt3 substrate); format: biochemical
# Procedure: Enzymes (from Upstate) were prepared at 2× final concentration in 1× kinase assay buffer (as described below). Enzymes were then incubated with test compounds, biotinylated Flt3 substrate (biotin—DNEYFYV) (Cell Signalling Technology Inc.) and ATP. The reaction was allowed to proceed for 3 hours (FGFR3) or 2.5 hrs (PDGFR-beta) at room temperature on a plate shaker at 900 rpm before being stopped with 20 μl of 35 mM EDTA, pH 8 (FGFR3) or 55 mM EDTA, pH 8 (PDGFR-beta). […] The plate was then read on a Packard Fusion plate reader in TRF mode.
# Kinase Assay buffers were:
# A: 50 mM HEPES pH 7.5, 6 mM MnCl2, 1 mM DTT, 0.1% TritonX-100
# LP-1 cell line = assay: Cell-based pERK ELISA method, LP-1 cells; details: Homo sapiens
# Procedure: LP-1 or JIM-1 multiple myeloma cells were seeded in 96 well plates at 1×10^6 cells/ml in 200 ul per well in serum free media. […] Cells were incubated for 16 h at 37° C. prior to the addition of a test compound for 30 minutes. Test compounds were administered at a 0.1% final DMSO concentration. […] ELISA plates and standards were prepared according o the standard DuoSet protocols and the relative amounts of pERK to total ERK in each sample calculated according to the standard curve.
# In particular, compounds of the invention were tested against the LP-1 cell line (DSMZ no.: ACC 41) derived from human multiple myeloma.
# [1] = read-out: IC50 less than 1 μM or at least 50% inhibition of the FGFR3 activity at a concentration of 1 μM
# [2] = LP-1, read-out: IC50 less than 1 μM or at least 50% inhibition at a concentration of 1 μM, LP-1 pERK ELISA
# [3] = LP-1, read-out: LP-1 pERK ELISA (μM)
# FGFR3, sequence (P22607 23-806): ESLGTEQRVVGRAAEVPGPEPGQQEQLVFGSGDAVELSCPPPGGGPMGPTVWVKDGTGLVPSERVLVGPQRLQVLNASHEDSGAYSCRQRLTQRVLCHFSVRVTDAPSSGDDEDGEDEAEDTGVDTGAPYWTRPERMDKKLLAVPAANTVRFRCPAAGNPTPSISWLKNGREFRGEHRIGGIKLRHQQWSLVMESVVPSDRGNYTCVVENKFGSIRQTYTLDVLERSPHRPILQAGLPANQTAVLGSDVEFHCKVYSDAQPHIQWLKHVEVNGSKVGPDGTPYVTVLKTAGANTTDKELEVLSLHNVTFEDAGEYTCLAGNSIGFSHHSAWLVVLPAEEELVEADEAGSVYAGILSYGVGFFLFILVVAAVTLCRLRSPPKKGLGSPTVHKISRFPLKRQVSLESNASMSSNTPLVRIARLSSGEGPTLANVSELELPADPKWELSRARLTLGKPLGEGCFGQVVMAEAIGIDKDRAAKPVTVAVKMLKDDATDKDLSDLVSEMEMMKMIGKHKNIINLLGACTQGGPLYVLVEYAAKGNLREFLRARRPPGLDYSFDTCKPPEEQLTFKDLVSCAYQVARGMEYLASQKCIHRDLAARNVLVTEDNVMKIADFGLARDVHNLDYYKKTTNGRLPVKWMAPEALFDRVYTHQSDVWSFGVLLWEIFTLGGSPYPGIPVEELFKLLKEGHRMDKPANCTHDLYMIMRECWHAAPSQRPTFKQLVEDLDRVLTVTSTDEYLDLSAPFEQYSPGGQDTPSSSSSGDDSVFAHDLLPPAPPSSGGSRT
IC50 (LP-1 cell line; [2]),IC50 (LP-1 cell line; [3]),SMILES,other results
< 1 µM,–,"N#Cc1ccn2c(-c3cccc(NC(=O)NCC(F)(F)F)c3)cnc2c1 [Example 341, 1-[3-(7-Cyano-imidazo[1,2-a]pyridin-3-yl)-phenyl]-3-(2,2,2-trifluoro-ethyl)-urea]",–
< 1 µM,–,"CN(C)C(=O)/C=C/c1ccn2c(-c3cccc(NC(=O)NCC(F)(F)F)c3)cnc2c1 [Example 345, (E)-N,N-Dimethyl-3-(3-{3-[3-(2,2,2-trifluoro-ethyl)-ureido]-phenyl}-imidazo[1,2-a]pyridin-7-yl)-acrylamide]",–
< 1 µM,–,"Cc1cc2ncc(-c3cccc(NC(=O)NCC(F)(F)F)c3)n2cc1Cl [Example 346, 1-[3-(6-Chloro-7-methyl-imidazo[1,2-a]pyridin-3-yl)-phenyl]-3-(2,2,2-trifluoro-ethyl)-urea]",–
< 1 µM,–,"Cc1nc(-c2ccn3c(-c4cccc(NC(=O)NCC(F)(F)F)c4)cnc3c2)cs1 [Example 348, 1-{3-[7-(2-Methyl-thiazol-4-yl)-imidazo[1,2-a]pyridin-3-yl]-phenyl}-3-(2,2,2-trifluoro-ethyl)-urea]",–
< 1 µM,–,"Cn1cc(-c2cnc3c(-c4cncc(NC(=O)NCC(F)(F)F)c4)cnn3c2)cn1 [Example 349, 1-{5-[6-(1-Methyl-1H-pyrazol-4-yl)-pyrazolo[1,5-a]pyrimidin-3-yl]-pyridin-3-yl}-3-(2,2,2-trifluoro-ethyl)-urea]",–
< 1 µM,–,"CC(C)(O)c1ccc(-c2ccn3c(-c4cccc(NC(=O)NCC(F)(F)F)c4)cnc3c2)cn1 [Example 351, 1-(3-{7-[6-(1-Hydroxy-1-methyl-ethyl)-pyridin-3-yl]-imidazo[1,2-a]pyridin-3-yl}-phenyl)-3-(2,2,2-trifluoro-ethyl)-urea]",–
–,0.0084 µM,"Cc1c(-c2ccn3c(-c4cccc(NC(=O)NCC(F)(F)F)c4)cnc3c2)ncn1C [Example 374, 1-{3-[7-(1,5-Dimethyl-1H-imidazol-4-yl)-imidazo[1,2-a]pyridin-3-yl]-phenyl}-3-(2,2,2-trifluoro-ethyl)-urea]","inhibition at 0.001 µM (FGFR3; % inhibition at 0.001 μM, read-out: FGFR3 IC50 or % inhibition): 64%"
–,0.019 µM,"O=C(NCC(F)(F)F)Nc1cccc(-c2cnc3cc(-c4nncs4)ccn23)c1 [Example 384, 1-[3-(7-[1,3,4]Thiadiazol-2-yl-imidazo[1,2-a]pyridin-3-yl)-phenyl]-3-(2,2,2-trifluoro-ethyl)-urea]",–
–,0.065 µM,"CC#Cc1ccn2c(-c3cccc(NC(=O)NCC(F)(F)F)c3)cnc2c1 [Example 396, 1-[3-(7-Prop-1-ynyl-imidazo[1,2-a]pyridin-3-yl)-phenyl]-3-(2,2,2-trifluoro-ethyl)-urea]",–
–,0.022 µM,"Cc1nsc(-c2ccn3c(-c4cccc(NC(=O)NCC(F)(F)F)c4)cnc3c2)n1 [Example 399, 1-{3-[7-(3-Methyl-[1,2,4]thiadiazol-5-yl)-imidazo[1,2-a]pyridin-3-yl]-phenyl}-3-(2,2,2-trifluoro-ethyl)-urea]",–
< 1 µM,–,"Cc1nc(C)n(-c2ccn3c(-c4cccc(NC(=O)NCC(F)(F)F)c4)cnc3c2)n1 [Example 414, 1-{3-[7-(3,5-Dimethyl-[1,2,4]triazol-1-yl)-imidazo[1,2-a]pyridin-3-yl]-phenyl}-3-(2,2,2-trifluoro-ethyl)-urea]",IC50 (FGFR3; [1]): < 1000 nM; IC50 (FGFR3; read-out: IC50 less than 10 μM or at least 50% inhibition of the FGFR3 activity at a concentration of 10 μM): < 10000 nM

# The next lines start with the compound.
SMILES,IC50 (LP-1 cell line; [2]),IC50 (LP-1 cell line; [3]),other results
"Fc1ccc(-c2ccn3c(-c4ccc5[nH]ccc5c4)cnc3c2)cc1 [Example 70, 7-(4-Fluoro-phenyl)-3-(1H-indol-5-yl)-imidazo[1,2-a]pyridine formate salt]",–,–,IC50 (FGFR3; [1]): < 1000 nM
"COc1ccc(-c2ccc3ncc(-c4cccc(NC(C)=O)c4)n3c2)cc1 [Example 100, N-{3-[6-(4-Methoxy-phenyl)-imidazo[1,2-a]pyridin-3-yl]-phenyl}-acetamide formate salt]",–,–,IC50 (FGFR3; [1]): < 1000 nM
"COc1cncc(-c2ccc3ncc(-c4cccc(NC(C)=O)c4)n3c2)c1 [Example 101, N-{3-[6-(5-Methoxy-pyridin-3-yl)-imidazo[1,2-a]pyridin-3-yl]-phenyl}-acetamide]",–,–,IC50 (FGFR3; [1]): < 1000 nM
"CCOc1ccn2c(-c3cccc(NC(=O)NCC(F)(F)F)c3)cnc2c1 [Example 337, 1-[3-(7-Ethoxy-imidazo[1,2-a]pyridin-3-yl)-phenyl]-3-(2,2,2-trifluoro-ethyl)-urea Formate]",< 1 µM,–,–
"CNC(=O)/C=C/c1ccn2c(-c3cccc(NC(=O)NCC(F)(F)F)c3)cnc2c1 [Example 344, (E)-N-Methyl-3-(3-{3-[3-(2,2,2-trifluoro-ethyl)-ureido]-phenyl}-imidazo[1,2-a]pyridin-7-yl)-acrylamide]",< 1 µM,–,–
"CSc1nnc(-c2ccn3c(-c4cccc(NC(=O)NCC(F)(F)F)c4)cnc3c2)o1 [Example 354, 1-{3-[7-(5-Methylsulfanyl-[1,3,4]oxadiazol-2-yl)-imidazo[1,2-a]pyridin-3-yl]-phenyl}-3-(2,2,2-trifluoro-ethyl)-urea]",–,0.0157 µM,–
"Cn1nnc(-c2ccn3c(-c4cccc(NC(=O)NCC(F)(F)F)c4)cnc3c2)n1 [Example 359, 1-{3-[7-(2-Methyl-2H-tetrazol-5-yl)-imidazo[1,2-a]pyridin-3-yl]-phenyl}-3-(2,2,2-trifluoro-ethyl)-urea]",–,0.033 µM,–
"Cn1cnc(-c2ccn3c(-c4cccc(NC(=O)NCC(F)(F)F)c4)cnc3c2)c1 [Example 375, 1-{3-[7-(1-Methyl-1H-imidazol-4-yl)-imidazo[1,2-a]pyridin-3-yl]-phenyl}-3-(2,2,2-trifluoro-ethyl)-urea]",–,0.022 µM,–
"Cc1c(-c2ccn3c(-c4cccc(NC(=O)NCC(F)(F)F)c4)cnc3c2)nnn1C [Example 378, 1-{3-[7-(1,5-Dimethyl-1H-[1,2,3]triazol-4-yl)-imidazo[1,2-a]pyridin-3-yl]-phenyl}-3-(2,2,2-trifluoro-ethyl)-urea formate]",–,0.016 µM,–
